Experiments:
Assay in all cases: CellTiter-Glo in vitro cell proliferation assay, Example 8
Type in all cases: cell-based, Human
RPMI-8226 cells = settings: RPMI-8226, HMM
Experimental: (§1) Each proliferation assay was carried out as follows. The test cells were plated in growth media using a 384-well microtiter plate at 50 μL volume. The cells were incubated for 24 hours at 37° C. in a humidified incubator. After 24 hours of incubation, the test compounds were added to the test wells in DSMO solvent, at concentrations ranging from 0.0075-100 μM. Control wells received equal volumes of DSMO, without compound. Following drugging, the cells were incubated for 72 hours at 37° C. in a humidified incubator. After this exposure, 100 μL of a 1:1 mixture of sterile water and CellTiter-Glo® reagent (Promega) was added to each well. The plates were then incubated for 60 minutes at room temperature, followed by recording the luminescence value of each well using a luminometer as a measure of cell proliferation.
In this example, different cell lines were subjected to in vitro cell proliferation assays as described in Example 8. In particular, the cell lines are identified in the following Table 17, and the tissue types were: Pancreatic; Endometrial; Triple-Negative Breast Cancer (TNBC); Non-Small-Cell Lung Carcinoma (NSCLC); Ovarian; Renal Cell Carcinoma (RCC); Cervical-Squamous Cell; […] (H&N-Squamous Cell); Germinal Center B Cell-Like Novo Diffuse Large B-Cell Lymphoma (GCB-DLBCL); Activated B-Cell—Diffuse Large B Cell Lymphoma (ABC-DLBCL); Human Myeloma; Human Myeloma Cell Line Lymphocyte-Like; Human Myeloma Cell Line Lymphocyte-Like Myeloma Pleural Effusion Infiltration; Human Multiple Myeloma; Plasma Cell Leukemia/Multiple Myeloma Epstein-Barr Nuclear Antigen-Negative (EBNA-Negative) and to Express mRNA for Proto-Oncogene B-Cell Lymphoma 2 (BCL2); Multiple Myeloma from Peripheral Blood Type IgD Lmabda.

AN3CA cells = settings: Endometrial, read-out: Mean IC50
Experimental: (§2) In this Example, in vitro cell proliferation assays were performed using: (1) Human Myeloma tumor cell lines; (2) Human Lymphoma tumor cell lines; (3) Solid Human tumor cell lines; and (4) Parental, Lenalidomide resistant and Bortezomib resistant Jeko-1 Mantle cell Lymphoma tumor cell lines. The compounds tested were three diharmaline compounds, namely the 518B562 (or simply 562), 560, and 561 compounds. In addition, a monoharmaline product designated as 518F014 was also tested. This monoharmaline product had the following structure:
as §1

H1650 (EGFR mut) cells = settings: NSCLC, read-out: Mean IC50
Experimental: as §2, §1

L363 cells = settings: L363, PCL/MM; read-out: Mean IC50
Experimental: as §2, §1

MIA PaCa-2 cells = settings: MIA PaCa-2, Pancreatic; read-out: Mean IC50
Experimental: as §2, §1

BxPC-3 cells = settings: BxPC-3, Pancreatic; read-out: Mean IC50
Experimental: as §2, §1

JIM1 cells = settings: JIM1, HMCL; read-out: Mean IC50
Experimental: as §2, §1

MDA-MB-231 cells = settings: MDA-MB-231, TNBC; read-out: Mean IC50
Experimental: as §2, §1

A498 cells = settings: A498, RCC; read-out: Mean IC50
Experimental: as §2, §1

SiHA cells = settings: Cervical - SC, read-out: Mean IC50
Experimental: as §2, §1

OCI-LY3 cells = settings: OCI-LY3, ABC-DLBCL; read-out: Mean IC50
Experimental: as §2, §1

HEC-1a cells = settings: Endometrial, read-out: Mean IC50
Experimental: as §2, §1

KMS-34 cells = settings: KMS-34, HMCL-B; read-out: Mean IC50
Experimental: as §2, §1

ASPC-1 cells = settings: ASPC-1, Pancreatic; read-out: Mean IC50
Experimental: as §2, §1

HCC70 cells = settings: HCC70, TNBC; read-out: Mean IC50
Experimental: as §2, §1

H1975 (EGFR mut) cells = settings: NSCLC, read-out: Mean IC50
Experimental: as §2, §1

MOLP-8 cells = settings: MOLP-8, MM IgD; read-out: Mean IC50
Experimental: as §2, §1

KMM-1 cells = settings: KMM-1, HMCL-A; read-out: Mean IC50
Experimental: as §2, §1

MDA-MB-468 cells = settings: MDA-MB-468, TNBC; read-out: Mean IC50
Experimental: as §2, §1

DOHH-2 cells = settings: DoHH-2, GCB-DLBCL; read-out: Mean IC50
Experimental: as §2, §1

FaDu cells = settings: H&N - SC, read-out: Mean IC50
Experimental: as §2, §1

A2780 cells = settings: A2780, Ovarian; read-out: Mean IC50
Experimental: as §2, §1

A2780CP cells = settings: Ovarian, read-out: Mean IC50
Experimental: as §2, §1

Row | SMILES | IC50 (RPMI-8226 cells) [µM] | IC50 (AN3CA cells) [µM] | IC50 (H1650 (EGFR mut) cells) [µM] | IC50 (L363 cells) [µM] | IC50 (MIA PaCa-2 cells) [µM] | IC50 (BxPC-3 cells) [µM] | IC50 (JIM1 cells) [µM] | IC50 (MDA-MB-231 cells) [µM] | IC50 (A498 cells) [µM] | IC50 (SiHA cells) [µM] | IC50 (OCI-LY3 cells) [µM] | IC50 (HEC-1a cells) [µM] | IC50 (KMS-34 cells) [µM] | IC50 (ASPC-1 cells) [µM] | IC50 (HCC70 cells) [µM] | IC50 (H1975 (EGFR mut) cells) [µM] | IC50 (MOLP-8 cells) [µM] | IC50 (KMM-1 cells) [µM] | IC50 (MDA-MB-468 cells) [µM] | IC50 (DOHH-2 cells) [µM] | other results
1 | COc1ccc2c3c([nH]c2c1)C(CC(CC1=NCCc2c1[nH]c1cc(OC)ccc21)c1ccccc1OC)=NCC3 [compound 1] | 1.87 | 2.5 | 8.18 | 2.62 | 3.67 | 4.3 | 4.51 | 5.72 | 9.91 | 9.44 | 3.42 | 9.27 | 4.15 | 6.44 | 8.02 | 6.54 | 1.98 | 4.2 | 4.39 | 2.25 | IC50 (FaDu cells): 5.36 µM; IC50 (A2780 cells): 5.9 µM; IC50 (A2780CP cells): 4.45 µM
2 | CCOc1cc(C(CC2=NCCc3c2[nH]c2cc(OC)ccc32)CC2=NCCc3c2[nH]c2cc(OC)ccc32)ccc1O [compound 2] | 8.51 | 6.72 | 21.6 | 6.26 | 7.51 | 7.88 | 11.5 | 14.3 | 16.8 | 17.1 | 6.58 | 21.6 | 9.35 | 15.2 | 21.2 | 19.5 | 5.3 | 9.4 | 9.9 | 3.66 | IC50 (FaDu cells): 13.5 µM; IC50 (A2780 cells): 16.9 µM; IC50 (A2780CP cells): 20.2 µM
3 | COc1ccc2c3c([nH]c2c1)C(CC(CC1=NCCc2c1[nH]c1cc(OC)ccc21)c1ccc(OC)c(OC)c1)=NCC3 [compound 4] | 4.09 | 5.1 | 13.6 | 6.38 | 4.37 | 6.05 | 6.89 | 12 | 12.7 | 17.1 | 5.57 | 16.3 | 4.75 | 11 | 11.6 | 14.1 | 5.03 | 6.32 | 6.27 | 3.17 | IC50 (FaDu cells): 7.69 µM; IC50 (A2780 cells): 11.5 µM; IC50 (A2780CP cells): 10.8 µM
4 | COc1ccc2c3c([nH]c2c1)C(CC(CC1=NCCc2c1[nH]c1cc(OC)ccc21)c1cc(OC)c(O)c([N+](=O)[O-])c1)=NCC3 [compound 5] | 19.3 | 11.4 | 23.4 | 22.2 | 19.9 | 21.2 | 17.7 | 23.7 | 22.8 | 36.9 | 12.3 | 27 | 17.4 | 15.7 | 15.1 | 28.1 | 14.4 | 20.3 | 14.7 | 9.31 | IC50 (FaDu cells): 22.3 µM; IC50 (A2780 cells): 24.1 µM; IC50 (A2780CP cells): 24.6 µM
5 | COc1ccc2c3c([nH]c2c1)C(CC(CC1=NCCc2c1[nH]c1cc(OC)ccc21)c1ccc(OC)c(O)c1)=NCC3 [compound 7] | 11.8 | 11.5 | 64.2 | 11.8 | 16.2 | 12.3 | 14.4 | 31.7 | 29.3 | 48.1 | 11.4 | 71.1 | 11.1 | 40.9 | 23.4 | 60.8 | 11.7 | 19.9 | 11.2 | 6.48 | IC50 (FaDu cells): 13.7 µM; IC50 (A2780 cells): 33 µM; IC50 (A2780CP cells): 33.7 µM
6 | COc1ccc2c3c([nH]c2c1)C(CC(CC1=NCCc2c1[nH]c1cc(OC)ccc21)c1cc(O)c(OC)c(OC)c1)=NCC3 [compound 11] | 10.1 | 8.74 | 26.2 | 11.6 | 11.7 | 11.5 | 11.5 | 13.5 | 51.3 | 15.9 | 11.3 | 36.3 | 11.1 | 21.9 | 27.2 | 19.5 | 10.8 | 12.1 | 12.2 | 4.32 | IC50 (FaDu cells): 16.4 µM; IC50 (A2780 cells): 18.3 µM; IC50 (A2780CP cells): 24.9 µM
7 | COc1ccc2c3c([nH]c2c1)C(CC(CC1=NCCc2c1[nH]c1cc(OC)ccc21)c1cc(Br)c(O)c(OC)c1)=NCC3 [compound 12] | 10.2 | 5.36 | 21.6 | 10.9 | 11.7 | 11.3 | 6.04 | 11.3 | 40.9 | 50.2 | 11.3 | 24.8 | 7.19 | 31.3 | 22 | 13 | 3.88 | 10.6 | 11.6 | 3.72 | IC50 (FaDu cells): 18.2 µM; IC50 (A2780 cells): 21.2 µM; IC50 (A2780CP cells): 20.5 µM
8 | COc1ccc2c3c([nH]c2c1)C(CC(CC1=NCCc2c1[nH]c1cc(OC)ccc21)c1ccc(OC)c(O)c1I)=NCC3 [compound 14] | 7.53 | 9.05 | 25.4 | 23.4 | 22.2 | 21 | 17.9 | 32.4 | 54.7 | 51.9 | 15.4 | 28.7 | 14.6 | 53.1 | 33.3 | 33.6 | 10.1 | 23.9 | 16.9 | 7.9 | IC50 (FaDu cells): 19.2 µM; IC50 (A2780 cells): 21.2 µM; IC50 (A2780CP cells): 24.3 µM
9 | COc1cccc(C(CC2=NCCc3c2[nH]c2cc(OC)ccc32)CC2=NCCc3c2[nH]c2cc(OC)ccc32)c1 [compound 15] | 2.95 | 3.45 | 9.6 | 6.58 | 3.63 | 4.22 | 6.26 | 6.77 | 15.2 | 12.3 | 6.32 | 13.1 | 3.5 | 5.45 | 11.7 | 12.1 | 3.19 | 7.36 | 6.7 | 5.05 | IC50 (FaDu cells): 6.62 µM; IC50 (A2780 cells): 8.45 µM; IC50 (A2780CP cells): 7.63 µM

From US12129265B2, “Therapeutic agents and uses thereof” (Ankh Life Sciences Limited, priority 2020, dated 2024)
